Values of other authors as cited in article PMC2747598 (Journal of the American Chemical Society, 2009).

Tested on: HeLa cells
Details: unconjugated complexes

Compound	Mode of cellular uptake
Ru(phen)(bpy′)(dppz)^2+	enter by passive diffusion and do not exhibit punctate staining
[Ru+2].c1ccc(-c2ccccn2)nc1.c1ccc(-c2ccccn2)nc1.c1ccc2nc3c4cccnc4c4ncccc4c3nc2c1 [Ru(bpy)2dppz^2+]	enter by passive diffusion and do not exhibit punctate staining
Ru(phen)2dppz^2+	enter by passive diffusion and do not exhibit punctate staining
